Tests used:
PP1α (PP1CA) = target: T1, PP1α (PP1CA) (Oryctolagus cuniculus, UniProt P62139); assay: Protein phosphatase test (PP1 activity, DiFMUP fluorescent substrate); type: biochemical; details: PP1CA at 80 mU, fluorescent substrate (50 μM), molecules from 50 μM to 50 nM; read-out: PP1 Inhibition IC50
T1 construct: purchased New England Biolabs P0754
Method: FIG. 13 presents the graph showing the inhibition of the PP1Cα activity by compound 6 in vitro. PP1Cα (New England Biolabs, 30 mU/well) was incubated in the presence of compound 6 at different concentrations and a fluorescent substrate, diFMUP.
Determination of the 1050 was carried out with PP1CA at 80 mU in the presence of a fluorescent substrate
(50 μM) and different concentrations of molecules from 50 μM to 50 nM.
For the activity tests, PP1α (New England Biolabs # P0754) was used at a final concentration of 30 mU or 80 mU for the screening of all the analogues. 6,8-difluoro-4-methylumbelliferyl phosphate (DiFMUP, Invitrogen # D6567) was used as fluorescent substrate at a concentration of […]. All the tests were carried out in a final volume of 100 μl, at 37° C. in 96-microwell plates (Greiner #655096).
Compound 6, combretastatin A4 (CA-4) as well as all the analogues were diluted in 50 μl of PP1 buffer (100 mM Tris-HCl, pH 7.5, 4 mM DTT, 0.2 mM EDTA, 0.5 mM MnCl2) from 50 μM to 50 nM. Corresponding quantities of DMSO were added to control wells. PP1α (30 or 80 mU in 30 μl of PP1 buffer) was added to each well. After incubating for 15 minutes at AT, the substrate was added (in 20 μl of PP1 buffer). After incubating for 20 minutes at 37° C., the fluorescence was measured in a plate fluorometer at 355-460 nm in order to assay the phosphatase activity. The test was carried out three times in duplicate for each condition.

bovine brain tubulin = assay: In vitro tubulin polymerization test (turbidimetry at 350 nm); type: biochemical; details: molecules at 50 μM, calculated at t=3000 s, DMSO control = 100%
Method: Tubulin was purified from bovine brain using the polymerization-depolymerization process described by (Castoldi M and Popov A V. Protein Expr Purif. 2003, 32(1): pp 83-8).
The in vitro tubulin polymerization tests (at 50 μM) were carried out in the presence of GTP 1 mM in BRB80 buffer (80 mM K-PIPES pH 6.8, 1 mM MgCl2, 1 mM EGTA) at 37° C. The tests were carried out in 96-microwell plates (half-wells) (Costar plates, Corning #3695), in triplicate with a final volume of 70 μl. Tubulin assembly was carried out in the presence of compound 6 or its analogues (all used at a concentration of 50 μM) and was monitored by turbidimetry measurement at 350 nm using a spectrophotometer (Spectramax More, Molecular Devices).
Measurement of the effect of a molecule on polymerization was calculated at t=3000 s taking the value of the control at the same time as being equal to 100%.

HeLa cells = assay: Indirect immunofluorescence: effect on HeLa cells (mitotic arrest, microtubule depolymerization); type: cell-based, human; set-up: key to Effect on Hela at 25 μM / Effect on Hela at 100 μM / Effect on Hela at 50 and 100 μM / Effect on Hela at 50 μM: —: −: no activity on the cells at 25 μM (if there is an effect at high concentrations, this is specified in the table).; *: weak activity (MA and/or slight depolymerization of the MTs and/or slight inhibition of proliferation),; **: average activity (MA and/or moderate depolymerization of the MTs and/or moderate inhibition of proliferation),; ***: strong activity (MA and/or pronounced depolymerization of the MTs and/or pronounced inhibition of proliferation),; ****: very strong activity (MA and/or very pronounced depolymerization of the MTs and/or strong inhibition of proliferation); details: 24 hours; for Effect on Hela at 25 μM: mitotic index and/or depolymerization of the MTs
Method: The cells were cultured on slides in 24-well plates and incubated for 24 hours with molecule 6 at different concentrations from 1 to 10 μM.
Corresponding quantities of DMSO were added to the culture medium in the control wells.
The cells were fixed in a solution of PBS with 4% paraformaldehyde (PFA) and 0.1% glutaraldehyde (GA), for 15 minutes and centrifuged at 300 g for the last 10 minutes of the fixing. The slides were rinsed in PBS and the free aldehyde groups were reduced by two successive 5-minute incubations in PBS containing 1 mg/ml of NaBH4.
After one washing with PBS then another with PBST (PBS with 0.5% triton-X-100), the cells are incubated for 30 minutes at ambient temperature with anti α-tubulin monoclonal antibody solution (DM1A clone, Sigma # T6199) diluted to 1:200 in PBST. After 3 10-minute washings with PBST, the cells are incubated for 30 minutes at ambient temperature in a solution of goat anti-mouse polyclonal antibodies coupled with Alexa 488 (1:1000, Molecular Probes # A-11029) and phalloidin coupled with Texas red to label the actin (1:2000, Molecular Probes # T7471), in PBST also containing Hoechst 33258 (1 μg/ml) for labelling the DNA. After 3 10-minute washings in PBST, the slides are mounted on plates in Fluorsave™ mounting medium (Calbiochem #345789) and are observed and analyzed using an Axiovert 200M inverted fluorescence microscope (Zeiss®). The images are produced with a Plan-Apochromat 63× oil objective (Zeiss®) by means of a Coolsnap HQ camera (Roper Scientifics®) and with Metamorph acquisition software (Universal Imaging™ Corporation).
In order to evaluate the effect of the analogues of compound 6 on PHFs and HeLa cells, the immunofluorescence technique described above was used and adapted to a 96-well dish format. The cells were seeded in glass-bottomed 96-well dishes and incubated for 24 hours in the presence of different concentrations of molecules from 100 μM to 50 nM. And in the same way as described above, the cells were fixed and immunolabelled. Analysis of the phenotypes as well as counting the mitotic cells were carried out with the same microscope but using a ×40 objective (Olympus). The molecules were compared with each other with respect to the mitotic arrest induced on PHFs and HeLa cells at 25 and 0.3 μM.
The mitotic index and/or the depolymerization of the MTs were evaluated at 25 μM.

HMEC cells = assay: Proliferation of HMEC cells (GI50); type: cell-based; details: Homo sapiens, 120 h, 50 μM to 1 nM for 5 days
Method: The HMECs were seeded at 10% confluence and incubated with the molecules at different concentrations (from 50 μM to 1 nM) for 5 days. The GI50 (50% Growth Inhibition) defines the concentration inducing a 50% reduction in proliferation with respect to the control.

T1 sequence (P62139 whole entry): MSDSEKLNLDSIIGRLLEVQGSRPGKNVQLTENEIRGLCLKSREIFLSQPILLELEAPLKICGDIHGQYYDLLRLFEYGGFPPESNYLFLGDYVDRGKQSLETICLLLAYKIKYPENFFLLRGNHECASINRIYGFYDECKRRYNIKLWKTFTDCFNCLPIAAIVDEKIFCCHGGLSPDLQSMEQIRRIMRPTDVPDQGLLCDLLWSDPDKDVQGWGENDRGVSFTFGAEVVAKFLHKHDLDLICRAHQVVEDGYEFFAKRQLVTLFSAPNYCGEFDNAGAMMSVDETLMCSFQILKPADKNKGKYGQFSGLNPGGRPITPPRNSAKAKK

SMILES	IC50 (PP1α (PP1CA)) [µM]	melting point [°C]	Tubulin polymerization inhibition (bovine brain tubulin)	Effect on Hela at 25 μM (HeLa cells)	Effect on Hela at 100 μM (HeLa cells)	GI50 (HMEC cells) [µM]	Effect on Hela at 50 and 100 μM (HeLa cells; 50 and 100 μM)
COc1ccc(-c2cc3ccc(OC)cc3c(S(=O)(=O)O)n2)cc1 [Compound 13, 7-methoxy-3-(4-methoxyphenyl)isoquinoline-1-sulphonic acid]	> 50	226 to 228	++ ((++) signifies that the molecule induces tubulin assembly inhibition in vitro comprised between 26 and 50% of the DMSO control.)	—	*	> 50	
COc1ccc(-c2[nH]c(=O)c3cc(OC)ccc3c2Br)cc1 [Compound 15, 4-Bromo-7-methoxy-3-(4-methoxyphenyl)isoquinoline-1(2H)-one]	> 50	240 to 242	++ ((++) signifies that the molecule induces tubulin assembly inhibition in vitro comprised between 26 and 50% of the DMSO control.)	***		0.1 to 1	
COc1ccc(-c2[nH]c(=O)c3cc(OC)ccc3c2I)cc1 [Compound 16, 4-Iodo-7-methoxy-3-(4-methoxyphenyl)isoquinoline-1(2H)-one]	> 50	216 to 218	+++ ((+++) signifies that the molecule induces tubulin assembly inhibition in vitro of more than 50% with respect to the DMSO control.)	***		0.1 to 1	
COc1ccc(-c2nc(Cl)c3cc(OC)ccc3c2[N+](=O)[O-])cc1 [Compound 17, 1-Chloro-7-methoxy-3-(4-methoxyphenyl)-4-nitroisoquinoline]	> 50	196 to 198	++ ((++) signifies that the molecule induces tubulin assembly inhibition in vitro comprised between 26 and 50% of the DMSO control.)	—		25 to 50	
COc1ccc(-c2nc(SCc3ccccc3)c3cc(OC)ccc3c2[N+](=O)[O-])cc1 [Compound 21, 1-(Benzylthio)-7-methoxy-3-(4-methoxyphenyl)-4-nitroisoquinoline]	25 to 50	148 to 150	+++ ((+++) signifies that the molecule induces tubulin assembly inhibition in vitro of more than 50% with respect to the DMSO control.)	—		> 50	
COc1ccc(-c2[nH]c(=O)c3cc(OC)ccc3c2N(C)C)cc1 [Compound 23, 4-(Dimethylamino)-7-methoxy-3-(4-methoxyphenyl)isoquinoline-1(2H)-one]	> 50	183 to 185	+ ((+) signifies that the molecule induces tubulin assembly inhibition in vitro comprised between 6 and 25% of the DMSO control.)	***		1 to 25	
COc1ccc(-c2[nH]c(=O)c3cc(OC)ccc3c2NC=O)cc1 [Compound 24, N-(7-Methoxy-3-(4-methoxyphenyl)-1-oxo-1,2-dihydroisoquinoline-4-yl)methanamide]	> 50	> 270	+ ((+) signifies that the molecule induces tubulin assembly inhibition in vitro comprised between 6 and 25% of the DMSO control.)	****		1 to 25	

Continued, in another order:

IC50 (PP1α (PP1CA)) [µM]	melting point [°C]	SMILES	Tubulin polymerization inhibition (bovine brain tubulin)	Effect on Hela at 25 μM (HeLa cells)	Effect on Hela at 100 μM (HeLa cells)	GI50 (HMEC cells) [µM]	Effect on Hela at 50 and 100 μM (HeLa cells; 50 and 100 μM)
≤ 9	188 to 190	COc1ccc(-c2cc3ccc(OC)cc3c(=S)[nH]2)cc1 [Compound 12, 7-Methoxy-3-(4-methoxyphenyl)isoquinoline-1(2H)-thione]	++ ((++) signifies that the molecule induces tubulin assembly inhibition in vitro comprised between 26 and 50% of the DMSO control.)	—	*	1 to 25	
10 to 24	226 to 228	COc1ccc(-c2[nH]c(=S)c3cc(OC)ccc3c2[N+](=O)[O-])cc1 [Compound 18, 7-Methoxy-3-(4-methoxyphenyl)-4-nitroisoquinoline-1(2H)-thione]	+++ ((+++) signifies that the molecule induces tubulin assembly inhibition in vitro of more than 50% with respect to the DMSO control.)	****		1 to 25	
25 to 50	176 to 178	COc1ccc(-c2nc(OC)c3cc(OC)ccc3c2[N+](=O)[O-])cc1 [Compound 19, 1,7-Dimethoxy-3-(4-methoxyphenyl)-4-nitroisoquinoline]	+ ((+) signifies that the molecule induces tubulin assembly inhibition in vitro comprised between 6 and 25% of the DMSO control.)	—	**	> 50	
25 to 50	169 to 171	COc1ccc(-c2nc(Sc3ccccc3)c3cc(OC)ccc3c2[N+](=O)[O-])cc1 [Compound 20, 7-Methoxy-3-(4-methoxyphenyl)-4-nitro-1-(phenylethio)isoquinoline]	++ ((++) signifies that the molecule induces tubulin assembly inhibition in vitro comprised between 26 and 50% of the DMSO control.)	—		> 50	*
≤ 9	199 to 201	COc1ccc(-c2nc(NCc3ccccc3)c3cc(OC)ccc3c2[N+](=O)[O-])cc1 [Compound 22, N-Benzyl-N-[7-methoxy-3-(4-methoxyphenyl)-4-nitroisoquinoline-1-yl]-amine]	+ ((+) signifies that the molecule induces tubulin assembly inhibition in vitro comprised between 6 and 25% of the DMSO control.)	—		> 50	
